According to patent US20080317700A1 (priority 2006, published 2008):

Tests used:
[1] = tested on: cyanobacteria Synechococcus 7002; experiment: Liquid culture growth inhibition (optical density), salt water cyanobacteria; format: cell-based; conditions: Synechococcus 7002, residual salt control; untreated control 0.72
Description: Strains of green algae, cyanobacteria and E. Coli were used as test organisms. The green algae CD 1 Red and cyanobacteria Synechocystos 6803 were obtained from the collection of Prof. George Bullerjahn. Salt water strain of cyanobacteria Synechococcus 7002 was obtained from the collection of Prof. Michael McKay. E Coli DH 5α was obtained from Invitrogen Inc.
Green algae and cyanobacteria were propagated photoautotrophically in 250 mL Erlenmeyer flasks containing 100 mL of liquid BG-11 culture medium (see Supporting Information). The cultures were kept on a rotating shaker (100 rpm) at 25° C. for 4 days and continuously illuminated with cool-white fluorescent light with a constant light intensity of 5000 lux. The grown culture medium was sterilized in an autoclave at 121° C. and 1.05 kg cm^−2 pressure for 20 min. For the cell experiments, 20 mL aliquots of the BG-11 medium containing the green algal ([cells]initial=5.9×10^7 mL^−1) or cyanobacteria cells ([cells]initial=1.7×10^9 mL^−1) were placed in sterile 50 mL Erlenmeyer flasks. CD 1 Red, Synechocystos 6803 and Synechococcus 7002 were then treated with an aliquot of a stock herbicide solution to bring the final herbicide concentration to 1 mM and incubated for 7 days on a rotator shaker (100 rpm) at 25° C. and continuous light intensity of 5000 lux. Cell counts were correlated with the absorbance and measured as a function of time using a Spectronic 20 Genesis spectrophotometer. As previously reported by Ma et al., 5 the optimal wavelength for monitoring culture growth is 680 nm. Experiments for each herbicide were repeated three times. Control and treated cultures were grown under the same conditions of temperature, photoperiod, and agitation. In each experiment, the inhibition of cell growth in treated cultures was monitored spectrophotometrically and compared to the growth in control samples.

Solubility (qualitative) = format: physicochemical
green algae CD 1 Red = experiment: organism not typed; format: cell-based; conditions: 120 h; CD1 Red, herbicide concentration 300 mM, 5 days; read-out: Average radii of the inhibition zones
Description: After phototrophical propagation during the 5 days under cool fluorescence light (intensity 5000 lux), the average radii of inhibition zones were measured. Water soaked filter paper circles were used as controls. Experiments for each herbicide concentration were repeated 3 times.

In the case of `[Cl-].[Na+]` [NaCl, sodium chloride], the “Optical Density at 680 nm after 7 days of media growth, NaCl control experiment” value [1] is reported as “(0.75 NaCl)”.

For `C=C(C)C(=O)N(CC(=O)O)CP(=O)(O)O` [MA, N-Methacryloyl-N-(phosphonomethyl)glycine], the “Solubility in organic solvents” value (Solubility (qualitative)) was “poorly soluble in most organic solvents” and the Solubility in water (Solubility (qualitative)) was “soluble in water”.

Work on `C=CC(N)=O` [acrylamide] yielded a zone of inhibition at 300000 µM (green algae CD 1 Red) of 7.5 mm.
